In patent publication US20250388605A1, “HETEROBIFUNCTIONAL COMPOUNDS AND METHODS OF TREATING DISEASE” (Halda Therapeutics OpCo, Inc., priority 2022, published 2025):

Tests used:
[1] = molecular target: T1, androgen receptor (Homo sapiens, UniProt P10275); experiment: Assay for binding affinity to androgen receptor ([3H]methyltrienolone radioligand competition, cell cytosol); conditions: binding to the androgen receptor, 1 nM [3H]methyltrienolone, 24 hr at 4° C.
T1 construct: host or cells: unnamed cells, cytosolic fraction
T1 sequence (P10275 1-920): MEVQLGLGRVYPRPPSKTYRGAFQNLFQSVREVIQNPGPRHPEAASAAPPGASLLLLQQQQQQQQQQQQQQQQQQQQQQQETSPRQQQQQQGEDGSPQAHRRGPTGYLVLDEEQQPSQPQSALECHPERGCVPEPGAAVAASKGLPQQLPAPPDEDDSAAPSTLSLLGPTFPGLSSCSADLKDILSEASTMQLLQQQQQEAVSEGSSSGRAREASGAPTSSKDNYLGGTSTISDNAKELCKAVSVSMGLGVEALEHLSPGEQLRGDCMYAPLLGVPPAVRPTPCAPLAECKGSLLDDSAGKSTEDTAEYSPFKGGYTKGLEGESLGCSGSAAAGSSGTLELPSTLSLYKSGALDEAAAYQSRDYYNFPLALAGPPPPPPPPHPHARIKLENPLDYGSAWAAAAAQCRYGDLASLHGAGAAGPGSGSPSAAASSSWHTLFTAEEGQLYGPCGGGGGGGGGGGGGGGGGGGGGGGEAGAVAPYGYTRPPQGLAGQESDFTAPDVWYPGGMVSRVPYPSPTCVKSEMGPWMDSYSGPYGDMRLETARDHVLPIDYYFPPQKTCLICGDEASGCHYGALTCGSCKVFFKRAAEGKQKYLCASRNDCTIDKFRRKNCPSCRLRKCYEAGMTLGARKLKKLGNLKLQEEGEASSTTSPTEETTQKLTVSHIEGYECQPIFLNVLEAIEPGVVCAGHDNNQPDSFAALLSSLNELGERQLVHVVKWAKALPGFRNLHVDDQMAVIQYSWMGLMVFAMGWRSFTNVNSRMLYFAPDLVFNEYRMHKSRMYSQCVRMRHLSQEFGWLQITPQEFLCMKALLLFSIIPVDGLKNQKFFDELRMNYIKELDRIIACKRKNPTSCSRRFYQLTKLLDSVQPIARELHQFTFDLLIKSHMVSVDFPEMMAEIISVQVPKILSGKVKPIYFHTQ
Experimental: Fractions of cell cytosol ([…]) were incubated for 24 hr at 4° C. with 1 nM [^3H]methyltrienolone in the absence or presence of the test compound in a buffer containing 25 mM Hepes-Tris (pH 7.4), 1 mM EDTA, 10 mM Na2MoO4, 2 mM DTT, 5 μM triamcinolone acetonide, and 10% glycerol. Nonspecific binding was determined in the presence of […] testosterone. Following incubation, the samples were filtered rapidly under vacuum through glass fiber filters (GF/B, Packard) presoaked with 0.3% PEI and rinsed several times with ice-cold 50 mM Tris-HCl using a 96-sample cell harvester (Unifilter, Packard). The filters were dried then counted for radioactivity in a scintillation counter (Topcount, Packard) using a scintillation cocktail (Microscint 0, Packard). The results are expressed as a percent inhibition of the control radioligand specific binding. The standard reference compound is testosterone, which is tested in each experiment at several concentrations to obtain a competition curve from which its IC50 is calculated.

[2] = tested on: T-Rex 293 cell line SC cells having increased expression of progesterone receptor isoform B protein; experiment: Cellular growth inhibition assay, T-Rex 293 SC cells exposed to doxycycline (increased progesterone receptor isoform B expression), CellTiter-Glo; assay type: cell-based; conditions: T-Rex 293 SC cells with 10 ng/mL doxycycline (increased PR isoform B), 72 hours

Row | Compound | Ki [1] | GI50 [2]
1 | Cn1cc(-c2ccccc2Oc2cccc(OCCOC3CCN(c4ncc(C(=O)N[C@H]5C(C)(C)[C@H](Oc6ccc(C#N)c(Cl)c6)C5(C)C)cn4)CC3)c2)c2cc[nH]c2c1=O [Compound I-61, N-((1r, 3r)-3-(3-chloro-4-cyanophenoxy)-2,2,4,4-tetramethylcyclobutyl)-2-(4-(2-(3-(2-(6-methyl-7-oxo-6,7-dihydro-1H-pyrrolo[2,3-c]pyridin-4-yl)phenoxy)phenoxy)ethoxy)piperidin-1-yl)pyrimidine-5-carboxamide] | < 50 nM | –
2 | CCS(=O)(=O)Nc1ccc(Oc2cccc(N(C)C3CN(CC4CCN(c5ncc(C(=O)NC6C(C)(C)C(Oc7ccc(C#N)c(Cl)c7)C6(C)C)cn5)CC4)C3)c2)c(-c2cn(C)c(=O)c3[nH]ccc23)c1 (stereo not shown) [Compound I-39] | < 50 nM | –
3 | CCS(=O)(=O)Nc1ccc(Oc2cccc(COC3CCN(c4ncc(C(=O)N[C@H]5C(C)(C)[C@H](Oc6ccc(C#N)c(Cl)c6)C5(C)C)cn4)CC3)c2)c(-c2cn(C)c(=O)c3[nH]ccc23)c1 [Compound I-18, N-((1r, 3r)-3-(3-chloro-4-cyanophenoxy)-2,2,4,4-tetramethylcyclobutyl)-2-(4-((3-(4-(ethylsulfonamido)-2-(6-methyl-7-oxo-6,7-dihydro-1H-pyrrolo[2,3-c]pyridin-4-yl)phenoxy)benzyl)oxy)piperidin-1-yl)pyrimidine-5-carboxamide] | < 50 nM | < 500 nM
4 | CCS(=O)(=O)Nc1ccc(Oc2cccc(OCCOC3CCN(c4ccc(C(=O)N[C@H]5C(C)(C)[C@H](Oc6ccc(C#N)c(Cl)c6)C5(C)C)cn4)CC3)c2)c(-c2cn(C)c(=O)c3[nH]ccc23)c1 [Compound I-70, N-((1r, 3r)-3-(3-chloro-4-cyanophenoxy)-2,2,4,4-tetramethylcyclobutyl)-6-(4-(2-(3-(4-(ethylsulfonamido)-2-(6-methyl-7-oxo-6,7-dihydro-1H-pyrrolo[2,3-c]pyridin-4-yl)phenoxy)phenoxy)ethoxy)piperidin-1-yl)nicotinamide] | < 50 nM | < 500 nM
5 | CCS(=O)(=O)Nc1ccc(Oc2cccc(CCOC3CCN(c4ncc(C(=O)N[C@H]5C(C)(C)[C@H](Oc6ccc(C#N)c(Cl)c6)C5(C)C)cn4)CC3)c2)c(-c2cn(C)c(=O)c3[nH]ccc23)c1 [Compound I-19] | < 50 nM | –
6 | CCS(=O)(=O)Nc1ccc(Oc2cccc(OCCOCCOCCOCCOCCN(C)c3ncc(C(=O)N[C@H]4C(C)(C)[C@H](Oc5ccc(C#N)c(Cl)c5)C4(C)C)cn3)c2)c(-c2cn(C)c(=O)c3[nH]ccc23)c1 [Compound I-3] | < 50 nM | < 500 nM
7 | CCS(=O)(=O)Nc1ccc(Oc2cccc(OCCN(C)c3ncc(C(=O)N[C@H]4C(C)(C)[C@H](Oc5ccc(C#N)c(Cl)c5)C4(C)C)cn3)c2)c(-c2cn(C)c(=O)c3[nH]ccc23)c1 [Compound I-1, N-((1r, 3r)-3-(3-chloro-4-cyanophenoxy)-2,2,4,4-tetramethylcyclobutyl)-2-((2-(3-(4-(ethylsulfonamido)-2-(6-methyl-7-oxo-6,7-dihydro-1H-pyrrolo[2,3-c]pyridin-4-yl)phenoxy)phenoxy)ethyl)(methyl)amino)pyrimidine-5-carboxamide] | < 50 nM | < 500 nM
8 | CCS(=O)(=O)Nc1ccc(Oc2cccc(OCCOC3CCN(c4ccc(C(=O)N[C@H]5C(C)(C)[C@H](Oc6ccc(C#N)c(Cl)c6)C5(C)C)nn4)CC3)c2)c(-c2cn(C)c(=O)c3[nH]ccc23)c1 [Compound I-11] | < 50 nM | –
9 | CCS(=O)(=O)Nc1ccc(Oc2cccc(OCCOC3CCN(c4ncc(C(=O)N[C@H]5C(C)(C)[C@H](Oc6ccc(C#N)c(Cl)c6)C5(C)C)cn4)CC3)n2)c(-c2cn(C)c(=O)c3[nH]ccc23)c1 [Compound I-47, N-((1r, 3r)-3-(3-chloro-4-cyanophenoxy)-2,2,4,4-tetra-methylcyclobutyl)-2-(4-(2-((6-(4-(ethylsulfonamido)-2-(6-methyl-7-oxo-6,7-dihydro-1H-pyrrolo[2,3-c]pyridin-4-yl)phenoxy)pyridin-2-yl)oxy)ethoxy)piperidin-1-yl)pyrimidine-5-carboxamide] | < 50 nM | –
10 | CCS(=O)(=O)Nc1ccc(Oc2cccc(OCCOCCOC3CCN(c4ncc(C(=O)N[C@H]5C(C)(C)[C@H](Oc6ccc(C#N)c(Cl)c6)C5(C)C)cn4)CC3)c2)c(-c2cn(C)c(=O)c3[nH]ccc23)c1 [Compound I-13] | < 50 nM | –
11 | CCS(=O)(=O)Nc1ccc(Oc2cccc(OCCOCCOCCOCCOCCOC3CCN(c4ncc(C(=O)N[C@H]5C(C)(C)[C@H](Oc6ccc(C#N)c(Cl)c6)C5(C)C)cn4)CC3)c2)c(-c2cn(C)c(=O)c3[nH]ccc23)c1 [Compound I-8] | < 50 nM | –

Now from value to molecule, other results behind:

Row | Ki [1] | Compound | GI50 [2]
12 | < 50 nM | CCS(=O)(=O)Nc1ccc(Oc2cccc(N3CCN(C4CN(c5ncc(C(=O)N[C@H]6C(C)(C)[C@H](Oc7ccc(C#N)c(Cl)c7)C6(C)C)cn5)C4)CC3)c2)c(-c2cn(C)c(=O)c3[nH]ccc23)c1 [Compound I-126] | –
13 | < 50 nM | CCS(=O)(=O)c1ccc(Oc2cccc(OCCOC3CCN(c4ccc(C(=O)N[C@H]5C(C)(C)[C@H](Oc6ccc(C#N)c(Cl)c6)C5(C)C)cn4)CC3)c2F)c(-c2cn(C)c(=O)c3[nH]ccc23)c1 [Compound I-185] | –
14 | < 50 nM | CCS(=O)(=O)Nc1ccc(Oc2cccc(NCCOC3CCN(c4ncc(C(=O)N[C@H]5C(C)(C)[C@H](Oc6ccc(C#N)c(Cl)c6)C5(C)C)cn4)CC3)c2)c(-c2cn(C)c(=O)c3[nH]ccc23)c1 [Compound I-84] | –
15 | 500 to 2500 nM | CCS(=O)(=O)Nc1ccc(Oc2cccc(OCCOC3CCN(c4cnc(C(=O)N[C@H]5C(C)(C)[C@H](Oc6ccc(C#N)c(Cl)c6)C5(C)C)cn4)CC3)c2)c(-c2cn(C)c(=O)c3[nH]ccc23)c1 [Compound I-71, N-((1r, 3r)-3-(3-chloro-4-cyanophenoxy)-2,2,4,4-tetramethylcyclobutyl)-5-(4-(2-(3-(4-(ethylsulfonamido)-2-(6-methyl-7-oxo-6,7-dihydro-1H-pyrrolo[2,3-c]pyridin-4-yl)phenoxy)phenoxy)ethoxy)piperidin-1-yl)pyrazine-2-carboxamide] | < 500 nM
16 | < 50 nM | Cn1cc(-c2cc(N)ccc2Oc2cccc(OCCC3CCN(c4ncc(C(=O)N[C@H]5C(C)(C)[C@H](Oc6ccc(C#N)c(Cl)c6)C5(C)C)cn4)CC3)c2)c2cc[nH]c2c1=O [Compound I-101] | –
17 | < 50 nM | CCS(=O)(=O)Nc1ccc(Oc2cccc(N3CC(N(C)C4CN(c5ncc(C(=O)N[C@H]6C(C)(C)[C@H](Oc7ccc(C#N)c(Cl)c7)C6(C)C)cn5)C4)C3)c2)c(-c2cn(C)c(=O)c3[nH]ccc23)c1 [Compound I-120] | –
18 | < 50 nM | Cn1cc(-c2cc(N)ccc2Oc2cccc(N3CC(N4CCN(c5ncc(C(=O)N[C@H]6C(C)(C)[C@H](Oc7ccc(C#N)c(Cl)c7)C6(C)C)cn5)CC4)C3)c2F)c2cc[nH]c2c1=O [Compound I-93] | –
19 | < 50 nM | CCS(=O)(=O)N(C)c1ccc(Oc2cccc(N3CCN(C4CN(c5ncc(C(=O)N[C@H]6C(C)(C)[C@H](Oc7ccc(C#N)c(Cl)c7)C6(C)C)cn5)C4)CC3)c2)c(-c2cn(C)c(=O)c3[nH]ccc23)c1 [Compound I-118] | –
20 | < 50 nM | Cn1cc(-c2ccccc2Oc2cccc(OCCN3CCN(c4ncc(C(=O)N[C@H]5C(C)(C)[C@H](Oc6ccc(C#N)c(Cl)c6)C5(C)C)cn4)CC3)c2)c2cc[nH]c2c1=O [Compound I-98] | –
21 | < 50 nM | CCS(=O)(=O)Nc1ccc(Oc2cccc(N3CC(CC4CN(c5ncc(C(=O)N[C@H]6C(C)(C)[C@H](Oc7ccc(C#N)c(Cl)c7)C6(C)C)cn5)C4)C3)c2)c(-c2cn(C)c(=O)c3[nH]ccc23)c1 [Compound I-158] | –
22 | < 50 nM | CCS(=O)(=O)Nc1ccc(Oc2cccc(CCN3CC4CN(c5ncc(C(=O)N[C@H]6C(C)(C)[C@H](Oc7ccc(C#N)c(Cl)c7)C6(C)C)cn5)CC4C3)c2)c(-c2cn(C)c(=O)c3[nH]ccc23)c1 (stereo partly shown) [Compound I-119] | –
23 | < 50 nM | Cn1cc(-c2cc(N)ccc2Oc2cccc(OCCN3CCN(c4ncc(C(=O)N[C@H]5C(C)(C)[C@H](Oc6ccc(C#N)c(Cl)c6)C5(C)C)cn4)CC3)c2F)c2cc[nH]c2c1=O [Compound I-100] | –
